Laboratory results: publication PMC4503256 (Biopharmaceutics & drug disposition, 2012)
Like-named read-outs stand apart in the source and are kept apart here. Marks after values point to notes of the source that are not given here. Blank lines part the entries; values can stand above or below the compound they belong to.

Experiments:
[1] = In vitro partitioning experiments in two-phase dissolution apparatus; format: physicochemical
[2] = cited from earlier work
[3] = format: physicochemical; conditions: sodium acetate buffer 50 mM, pH 4.5, isotonic; unpublished data
[4] = measured value; cited from earlier work
[5] = measured value; cited from earlier work; remark: listed apart in the source
[6] = cited from earlier work; for Log D: measured value

- Best-fit PI for all conditions ([1]; Apparatus 1, experiments 3–6 (pH 1.5–6.3), 77 rpm, range of 2.2–4.8 × 10^−3): 3000 ×10⁻⁶ cm/s
- PI × 10^4 (best fit) ([1]; Exp. 3, Fig 3(a), Apparatus 1, pH 1.5, 77 rpm, A/Va 0.42 cm^−1, MT/Va 16.7 μg/ml): 23.71 cm/s × 10^4
- PI × 10^4 (best fit) ([1]; Exp. 4, Fig 3(b), Apparatus 1, pH 4.3, 77 rpm, A/Va 0.42 cm^−1, MT/Va 16.7 μg/ml): 30.06 cm/s × 10^4
- PI × 10^4 (best fit) ([1]; Exp. 5, Fig 3(c), Apparatus 1, pH 4.4, 77 rpm, A/Va 0.42 cm^−1, MT/Va 16.7 μg/ml): 37.52 cm/s × 10^4
- PI × 10^4 (best fit) ([1]; Exp. 6, Fig 3(d), Apparatus 1, pH 6.3, 77 rpm, A/Va 0.42 cm^−1, MT/Va 16.7 μg/ml): 30.81 cm/s × 10^4
- PI × 10^4 (best fit) ([1]; Exp. 7, Fig 4(a), Apparatus 2, pH 5.0, 75 rpm, A/Va 0.30 cm^−1, MT/Va 25.0 μg/ml): 19.08 cm/s × 10^4
- PI × 10^4 (best fit) ([1]; Exp. 8, Fig 4(b), Apparatus 2, pH 6.8, 75 rpm, A/Va 0.30 cm^−1, MT/Va 50.0 μg/ml): 28.73 cm/s × 10^4
- PI × 10^4 (best fit) ([1]; Exp. 9, Fig 4(c), Apparatus 2, pH 6.8, 75 rpm, A/Va 0.30 cm^−1, MT/Va 25.0 μg/ml): 26.85 cm/s × 10^4
- Dissolution rates of particles, buffer versus buffer saturated with 1-octanol [3]: no difference
SMILES: CC(C)Cc1ccc(C(C)C(=O)O)cc1 (stereo not drawn) [Ibuprofen]
- Absorbed in humans ([2]; in vivo): > 99%

SMILES: Cc1nccn1CC1CCc2c(c3ccccc3n2C)C1=O (stereo not drawn) [Ondansetron]
- Fa (fraction absorbed in vivo), actual ([2]; humans, oral solutions): 1

SMILES: CN1C(C(=O)Nc2ccccn2)=C(O)c2ccccc2S1(=O)=O [Piroxicam]
- pKa at 37 °C (basic) [4]: 2.3 (basic)^c
- Intrinsic solubility at 37 °C [5]: 6.6 × 10^−5f M
- Log D ([6]; pH 1.2): pH 1.2: 0.92^f
- Apparent partition coefficient ([6]; pH 7.5, 37 °C, ref Yazdanian et al. 27): 0.8
- Log D ([6]; pH 7.5): pH 7.5: 0.8^g

SMILES: CCCC(CCC)C(=O)O [Valproic acid]
- Fa (fraction absorbed in vivo), actual ([2]; humans, oral solutions): 1
- ka × 10^4 (first-order absorption rate constant), decon. ([2]; humans, oral solutions, printed value = ka × 10^4): 11.5 s^−1
